Laboratory results taken from US4898975A, “Water soluble organic ammonium per halides” (Great Lakes Chemical Corporation, priority 1989, dated 1990).
Like-named read-outs stand apart in the source and are kept apart here.

Assays:
[1] = type: physicochemical; conditions: closed bottle
Protocol: In order to determine the shelf life stability of the perbromide solutions, a series of studies were conducted to determine the percent bromine lost over time. The following tables shown below list the perbromides studied and the percent oxidizable bromine lost over time. The perbromides studied were kept in closed bottles in ambient conditions (Table 7) and at 50° C.

[2] = Vapor pressure of aqueous organic ammonium perbromides (isoteniscope); type: physicochemical; conditions: for Vp: 26° C. (Table 9)
Protocol: The vapor pressures of the aqueous organic ammonium perbromides were measured using an isoteniscope as described by Farrington, et al. [Farrington, D.; Alberti, R.; William, S.; Corwell, C.; Bender, P; and Harriman, S. Experimental Physical Chemistry, Experiment 17, pp. 164-165, 7th Edition, McGraw Hill Publishing Co., New York, 1976].

[3] = Titration of oxidizable bromine (Standard Methods, Method 408A); type: physicochemical; conditions: for Ox. Br2: of the sample used for vapor pressure (Table 9)
[4] = Water solubility of perbromides
physchem = conditions: water
[5] = 50° C., time elapsed 40 (months)
[6] = 50° C., time elapsed 40 (months), 1.752e+06 min
[7] = completely soluble perbromides, aqueous solution (Table 1)
[8] = partially soluble perbromides, separated liquid phase (Table 2)
[9] = concentrated and anhydrous perbromides (Table 4)
[10] = higher aqueous ethanolammonium perbromides (Table 6)

Compound: OCCNCCO [Compound 4, Diethanolammonium Perbromide]
- Initial Ox. Br2 ([1]; 50° C.): 37.0 % by Weight
- Change in % Br2 [1, 5]: 7.0%
- Final Ox. Br2 [1, 5]: 30.0 % by Weight
- Relative Change in % Br2 [1, 6]: 18.9%
- Vp [2]: 49 mmHg

Compound: CNCCO [Compound 5, Methylethanolammonium Perbromide]
- Tit. Ox. Br2 [3, 7]: 39.3 % by Weight
- Ox. Br2 [3]: 39.3 % by Weight
- Vp [2]: 28 mmHg

Compound: NaBr3 [Compound 33, reference compound]
- Ox. Br2 [3]: 37.9 % by Weight
- vapor pressure [2]: 140 mm Hg
- Vp [2]: 145 mmHg

Compound: CCCCCCCCN [Compound 9, Octylammonium Perbromide]
- Tit. Ox. Br2 [3, 7]: 34.7 % by Weight

Compound: BrBr [Compound 35, Bromine, reference compound]
- Ox. Br2 [3]: 100 % by Weight
- vapor pressure ([2]; 26° C.): approximately 220 mm Hg
- Vp [2]: 223 mmHg

Compound: CCCCNCCCC [Compound 11, Dibutylammonium Perbromide]
- Ox. Br2 [3]: 43.3 % by Weight
- Tit. Ox. Br2 [3, 8]: 40.9 % by Weight
- Change in % Br2 ([1]; ambient temperature, 16 months): 2.1%
- Final Ox. Br2 ([1]; ambient temperature, 16 months): 41.1 % by Weight
- Relative Change in % Br2 ([1]; ambient temperature, 16 months, 700800 min): 4.9%
- Initial Ox. Br2 ([1]; ambient temperature): 43.2 % by Weight
- solubility [4]: 10 mg/mL
- Vp [2]: 38 mmHg

Compound: NCCCCCCN [Compound 16, 1,6-Hexanediammonium]
- Tit. Ox. Br2 ([3]; perbromides precipitated out of aqueous solution (Table 3)): 51.8 % by Weight
- solubility (physchem): 500 mg/mL

Compound: CCCCN(CCCC)CCCC [Compound 12, Tributylammonium Perbromide, reference compound]
- Ox. Br2 [3]: 37.5 % by Weight
- Tit. Ox. Br2 [3, 8]: 36.0 % by Weight
- Vp [2]: 28 mmHg

Compound: CCN(CC)CCO [Compound 14, Diethylethanolammonium]
- Tit. Ox. Br2 [3, 8]: 42.3 % by Weight
- Solubility in water (in words) [4]: only sparingly soluble in water
- solubility [4]: 1 mg/mL

Compound: Ethanolammonium Perbromide [Compound 21]
- Relative Change in % Br2 ([1]; 29200 h): 3.1%
- Relative Change in % Br2 ([1]; ambient, 17520 h): 2.0%

Compound: Propylammonium Perbromide [Compound 22]
- Relative Change in % Br2 ([1]; 29200 h): 2.7%
- Relative Change in % Br2 ([1]; ambient, 17520 h): 2.3%

Compound: OCCNCCO [Compound 20, Diethanolammonium Perbromide]
- Tit. Ox. Br2 [3, 9]: 45.3 % by Weight

Compound: NCCO [Compound 18, Ethanolammonium Perbromide]
- Tit. Ox. Br2 [3, 9]: 51.8 % by Weight

Compound: CCNCCO [Compound 6, Ethylethanolammonium Perbromide]
- Tit. Ox. Br2 [3, 7]: 37.7 % by Weight

Compound: NCCO [Compound 28]
- Tit. Ox. Br2 [3, 10]: 63.9 % by Weight

Compound: NCCO [Compound 26]
- Tit. Ox. Br2 [3, 10]: 52.6 % by Weight

Compound: CCCNCCC [Compound 10, Dipropylammonium Perbromide]
- Tit. Ox. Br2 [3, 8]: 45.1 % by Weight
- solubility (physchem): 100 mg/mL

Compound: CCCN [Compound 3, Propylammonium Perbromide]
- Tit. Ox. Br2 [3, 7]: 39.3 % by Weight
- Vp [2]: 36 mmHg

Compound: NCCO [Compound 27]
- Tit. Ox. Br2 [3, 10]: 57.7 % by Weight
- Ox. Br2 [3]: 57.7 % by Weight
- Vp [2]: 116 mmHg

Compound: NCCO [Compound 29]
- Tit. Ox. Br2 [3, 10]: 72.6 % by Weight

Compound: NCCO [Compound 1, Ethanolammonium Perbromide]
- Initial Ox. Br2 ([1]; 50° C.): 40.8 % by Weight
- Change in % Br2 [1, 5]: 1.8%
- Final Ox. Br2 [1, 5]: 39.0 % by Weight
- Relative Change in % Br2 [1, 6]: 4.4%
- Change in % Br2 ([1]; ambient temperature, 24 months): 1.6%
- Final Ox. Br2 ([1]; ambient temperature, 24 months): 38.5 % by Weight
- Relative Change in % Br2 ([1]; ambient temperature, 24 months, 1.0512e+06 min): 4.0%
- Initial Ox. Br2 ([1]; ambient temperature): 40.1 % by Weight

Compound: CCCCCCN [Compound 8, Hexylammonium Perbromide]
- Tit. Ox. Br2 [3, 7]: 36.1 % by Weight

Compound: CN(C)CCO [Compound 7, Dimethylethanolammonium Perbromide, reference compound]
- Vp [2]: 30 mmHg

Compound: CCCN [Compound 19, Propylammonium Perbromide]
- Tit. Ox. Br2 [3, 9]: 53.2 % by Weight
